According to the NIST ThermoML archive (doi:10.1021/je700619q):
± gives the expanded uncertainty stated by the source.

Tests used:
[1] = 101 kPa, Liquid
[2] = Boiling temperature at pressure P; settings: 101 kPa; Liquid; Distillation
[3] = xn = mol fraction of the nth substance listed; settings: 101 kPa, Liquid

CCCCCCCCCCO [decan-1-ol]
[1]
Settings | mass density [kg/m3] | speed of sound [m/s] | viscosity [mPa·s]
293 K | 830.1 ± 5.9 | 1408 ± 22 | 13.41 ± 0.96
303 K | 822.1 ± 6.6 | 1375.2 ± 22 | 9.262 ± 0.7
313 K | 815.7 ± 7.2 | 1344.8 ± 22 | 6.515 ± 0.53

Settings | Boiling temperature at pressure P [°C]
[2] | 229.80 ± 0.2

CCCCCCCCCCO [decan-1-ol] + CCNCC
[3], x2 = 0
Settings | mass density [kg/m3] | speed of sound [m/s] | viscosity [mPa·s]
293 K | 830.1 ± 5.9 | 1408 ± 22 | 13.41 ± 0.96
303 K | 822.1 ± 6.6 | 1375.2 ± 22 | 9.262 ± 0.7
313 K | 815.7 ± 7.2 | 1344.8 ± 22 | 6.515 ± 0.53

CCNCC [diethylamine]
[1]
Settings | mass density [kg/m3] | speed of sound [m/s] | viscosity [mPa·s]
293 K | 707.6 ± 4.7 | 1140.8 ± 19 | 0.3212 ± 0.04
303 K | 693.6 ± 5.3 | 1089.6 ± 18 | 0.275 ± 0.036
313 K | 678.4 ± 5.8 | 1045 ± 18 | 0.2577 ± 0.035

Settings | Boiling temperature at pressure P [°C]
[2] | 55.30 ± 0.2

CCNCC [diethylamine] + CCCCCCCCCCO
[3]
Settings | mass density, 293 K [kg/m3] | mass density, 303 K [kg/m3] | mass density, 313 K [kg/m3] | speed of sound, 293 K [m/s] | speed of sound, 303 K [m/s] | speed of sound, 313 K [m/s] | viscosity, 293 K [mPa·s] | viscosity, 303 K [mPa·s] | viscosity, 313 K [mPa·s]
x1 = 0.0989 | 828.2 ± 5.9 | 820.7 ± 6.5 | 811.5 ± 7.2 | 1383.2 ± 22 | 1372.4 ± 22 | 1332.8 ± 22 | 11.04 ± 0.81 | 7.825 ± 0.61 | 5.532 ± 0.47
x1 = 0.1963 | 824.8 ± 5.8 | 814.6 ± 6.5 | 806.3 ± 7.1 | 1352 ± 22 | 1350 ± 22 | 1326 ± 21 | 8.974 ± 0.68 | 6.352 ± 0.52 | 4.522 ± 0.4
x1 = 0.3062 | 818.1 ± 5.8 | 810 ± 6.4 | 803.7 ± 7.1 | 1347.2 ± 22 | 1340 ± 22 | 1316 ± 21 | 7.105 ± 0.57 | 4.977 ± 0.43 | 3.558 ± 0.32
x1 = 0.4062 | 814.4 ± 5.7 | 808.4 ± 6.4 | 802.1 ± 7.1 | 1333.6 ± 22 | 1326 ± 21 | 1297.2 ± 21 | 5.423 ± 0.46 | 3.524 ± 0.31 | 2.793 ± 0.25
x1 = 0.4898 | 799 ± 5.6 | 794.2 ± 6.3 | 788.9 ± 7 | 1321.8 ± 21 | 1314 ± 21 | 1290.8 ± 21 | 3.948 ± 0.35 | 2.857 ± 0.26 | 2.244 ± 0.21
x1 = 0.5973 | 795.6 ± 5.5 | 790.7 ± 6.2 | 782.9 ± 6.9 | 1310.4 ± 21 | 1302.4 ± 21 | 1274.8 ± 21 | 2.609 ± 0.24 | 2.015 ± 0.19 | 1.631 ± 0.15
x1 = 0.6708 | 785.4 ± 5.4 | 779.9 ± 6.1 | 773.7 ± 6.8 | 1302.4 ± 21 | 1295.6 ± 21 | 1258.4 ± 21 | 1.925 ± 0.18 | 1.652 ± 0.15 | 1.257 ± 0.12
x1 = 0.7388 | 779.4 ± 5.4 | 773.3 ± 6.1 | 769.7 ± 6.8 | 1293.6 ± 21 | 1278.8 ± 21 | 1238.4 ± 20 | 1.43 ± 0.14 | 1.253 ± 0.12 | 0.9795 ± 0.097
x1 = 0.8012 | 770.2 ± 5.3 | 763.6 ± 6 | 755.5 ± 6.6 | 1288.8 ± 21 | 1266.4 ± 21 | 1212 ± 20 | 1.067 ± 0.1 | 0.9298 ± 0.093 | 0.7247 ± 0.075
x1 = 0.8562 | 759.5 ± 5.2 | 753.7 ± 5.9 | 745.6 ± 6.5 | 1247.2 ± 20 | 1216.8 ± 20 | 1164.8 ± 19 | 0.7924 ± 0.081 | 0.689 ± 0.072 | 0.5424 ± 0.059
x1 = 0.9031 | 741.4 ± 5 | 737.6 ± 5.7 | 728.2 ± 6.3 | 1211.2 ± 20 | 1176 ± 20 | 1123.2 ± 19 | 0.6052 ± 0.065 | 0.5352 ± 0.059 | 0.4368 ± 0.05
x1 = 0.9601 | 720.7 ± 4.8 | 709.2 ± 5.4 | 694.8 ± 6 | 1173.2 ± 20 | 1130.4 ± 19 | 1082 ± 18 | 0.4396 ± 0.051 | 0.3609 ± 0.044 | 0.3265 ± 0.041
x1 = 1 | 707.6 ± 4.7 | 693.6 ± 5.3 | 678.4 ± 5.8 | 1140.8 ± 19 | 1089.6 ± 18 | 1045 ± 18 | 0.3212 ± 0.04 | 0.275 ± 0.036 | 0.2577 ± 0.035
